Assay results as given in the METLIN SMRT retention time set (Domingo-Almenara et al. 2019).

Assay: gradient 5% acetonitrile 3 min, to 50% in 2 min, to 85% in 15 min, held 3 min, 100 µL/min
Settings: column: Zorbax Extend-C18 2.1 x 50 mm; eluents: water / acetonitrile, 0.1% formic acid
Method in brief: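 Values are retention times taken from adduct peaks that software picked and an analyst inspected. The pure standards were run as mixtures of ~100 molecules on HPLC linked to a quadrupole time-of-flight mass spectrometer, in positive and negative ionization mode. A Zorbax Extend-C18 column (2.1 × 50 mm, 1.8 μm) was used at 100 μL/min with water and acetonitrile, each including 0.1% formic acid.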

COCCCNC(=O)Nc1ccc2c(c1)CCN2S(=O)(=O)c1ccccc1
RP-LC retention time: 762 s

Cc1ccc(C)c(CNC(=O)C2CCCN(c3cnn(C)c(=O)c3)C2)c1 (centres undefined)
RP-LC retention time: 723 s

CCCn1cnnc1C1CCCCN1Cc1ccc(Br)o1 (centres undefined)
RP-LC retention time: 599 s

Cc1ccc(-n2c(=O)c3sccc3n(Cc3nc(-c4ccc(C(F)(F)F)cc4)no3)c2=O)cc1
RP-LC retention time: 1190 s

NC(=O)C(=O)c1cn(CC(=O)NC2CCCCC2)c2ccccc12
RP-LC retention time: 743 s

O=C(CC1(O)C(=O)Nc2c(Cl)cc(Cl)cc21)c1cccc([N+](=O)[O-])c1 (centres undefined)
RP-LC retention time: 792 s

Oc1cc2c(c(Cl)c1O)CCNCC2c1ccccc1 (centres undefined)
RP-LC retention time: 618 s

COc1ccc(-c2n[nH]c3c2C(c2ccc(O)c(OC)c2)NC3=O)cc1 (centres undefined)
RP-LC retention time: 639 s

Cc1sc(-c2noc(C(C)C)n2)cc1S(=O)(=O)N1CCC(C(=O)N(C)Cc2ccco2)CC1
RP-LC retention time: 1070 s

Cc1ccnc(N2CCCC(C(=O)N3CCC(C(N)=O)(N4CCCCC4)CC3)C2)n1 (centres undefined)
RP-LC retention time: 542 s

O=C(Cc1ccc(NC(=O)c2cc(=O)c3ccccc3o2)cc1)NCc1cccs1
RP-LC retention time: 739 s

CCn1ccc(C(=O)N2CCC(N3C(=O)C(O)C34CCCCC4)CC2)n1 (centres undefined)
RP-LC retention time: 603 s

Cc1ccccc1NC(=O)Cc1cn2cc(Cl)ccc2n1
RP-LC retention time: 620 s

CC(C)(C)NC(=O)Cn1ccn2nc(-c3ccc(F)cc3)c(CO)c2c1=O
RP-LC retention time: 738 s

CCc1nncn1C1CCN(S(=O)(=O)c2ccc(C)c(Cl)c2)CC1
RP-LC retention time: 754 s

O=C(CN1C(=O)CCCc2cc(S(=O)(=O)N3CCCC3)ccc21)Nc1ccc(F)cc1Cl
RP-LC retention time: 857 s

CCCNC(=O)Cn1c(=O)c2cnc(-c3ccc(Cl)cc3)nc2n(C)c1=O
RP-LC retention time: 909 s

CCCNc1nc(C(=O)OCC)nc2ccccc12
RP-LC retention time: 626 s

O=c1c2nc(-c3ccc4c(c3)OCO4)cn2ccn1-c1ccc(Cl)cc1
RP-LC retention time: 834 s

Cc1cc(C2CCCN2C(=O)Cc2cccc(F)c2)no1 (centres undefined)
RP-LC retention time: 790 s

CC(C)Oc1ccc(-c2noc(Cn3c(=O)n(Cc4ccccc4)c(=O)c4sccc43)n2)cc1
RP-LC retention time: 1170 s

c1ccc(-c2nc(-c3cnccn3)no2)c(OC2CCNC2)c1 (centres undefined)
RP-LC retention time: 615 s

COc1ccc(OC)c(S(=O)(=O)N2CCCC(C)(C(=O)NCc3ccc(F)cc3)C2)c1 (centres undefined)
RP-LC retention time: 916 s

c1ccc(C(NCc2cccnc2)(c2ccccc2)c2ccccc2)cc1
RP-LC retention time: 831 s

O=C(Nc1ccc(F)cc1)C1CC(=O)N(c2n[nH]c3cccc(F)c23)C1 (centres undefined)
RP-LC retention time: 740 s

CC1CCN(CCNS(=O)(=O)c2ccccc2-c2nc(-c3cccc(F)c3)no2)CC1
RP-LC retention time: 755 s

CC(=O)N1c2ccc(S(=O)(=O)N3CCC(C(=O)Nc4cccc(Cl)c4C)CC3)cc2CC1C (centres undefined)
RP-LC retention time: 895 s

O=C(Nc1cccc(-c2nnc3n2CCCC3)c1)C1CCCCC1
RP-LC retention time: 699 s

Cc1cnc(-c2ccncc2)n1CCNS(=O)(=O)c1ccc2c(c1)CCC2
RP-LC retention time: 633 s

O=C(CN1CCc2[nH]c3c(F)c(Cl)ccc3c(=O)c2C1)Nc1cc(F)cc(F)c1
RP-LC retention time: 699 s

COc1ccc(Cl)cc1NC(=O)N1CCN(c2cc(C)nc(Nc3ccc(C)cc3)n2)CC1
RP-LC retention time: 798 s

O=C(Nc1cccc(F)c1)N1CCN(c2cc(-c3ccncc3)[nH]n2)CC1
RP-LC retention time: 606 s

Cc1cccc(-c2noc(Cc3nnc(-c4ccc(F)cc4)o3)n2)c1
RP-LC retention time: 1070 s

O=C(NCCN1CCCC1)c1ccc2nc(-c3ccccc3)cn2c1
RP-LC retention time: 552 s

Cc1cccc(NC(=O)N2CCC3(C2)C(=O)N(C)c2ccccc23)c1 (centres undefined)
RP-LC retention time: 808 s

CCn1cc(C(=O)N[C@@H](Cc2ccccc2)C(=O)O)c(=O)c2cc3c(cc21)OCO3
RP-LC retention time: 728 s

CN(CC1(C)CCOCC1)C(=O)Cc1ccccc1Cl
RP-LC retention time: 818 s

CCOC(=O)NCCS(=O)(=O)N1CCN(c2ccccc2F)CC1
RP-LC retention time: 774 s

C=CCc1c(C)nc2c(-c3ccccc3)cnn2c1NCCN(C)C
RP-LC retention time: 660 s

CCc1noc(NC(C)=O)c1-c1ccc(OC)c(S(=O)(=O)NCc2ccccc2C)c1
RP-LC retention time: 884 s

COc1cccc(-c2noc(CCn3nc(-c4ccc5c(c4)OCO5)ccc3=O)n2)c1OC
RP-LC retention time: 852 s

Cc1ccc2c(=O)c3c([nH]c2c1C)CCN(CC(=O)Nc1cc(F)cc(F)c1)C3
RP-LC retention time: 638 s

O=C(Cn1cnc2nc(N3CCCC(C(=O)NC4CC4)C3)sc2c1=O)NCc1ccccc1 (centres undefined)
RP-LC retention time: 646 s

COc1ccc(-c2nc(NC3CCCC3)c3ccccc3n2)cc1
RP-LC retention time: 825 s

CN1CCc2nnc(C3CCCN3C(=O)Nc3ccc(Cl)cc3C(F)(F)F)n2CC1 (centres undefined)
RP-LC retention time: 594 s

COc1cccc(N2CCN(S(=O)(=O)c3cc(-c4nnc(C5CCC5)o4)co3)CC2)c1
RP-LC retention time: 1060 s

CCN1C(=O)COc2ccc(-c3csc(NC(=O)CC(C)C)n3)cc21
RP-LC retention time: 928 s

Clc1ccc(-c2nc(-c3ccc4nncn4c3)no2)cc1
RP-LC retention time: 896 s

CNC(=O)N1c2ccccc2CC1c1nc(C(C)C)no1 (centres undefined)
RP-LC retention time: 799 s

O=C(Cc1ccc(F)cc1)N1CCN(C(=O)c2nnn3c2COC(c2ccc(F)cc2)C3)CC1 (centres undefined)
RP-LC retention time: 861 s

CCOC(=O)C1=C(CN(CC)Cc2ccccc2)NC(=O)NC1c1cccs1 (centres undefined)
RP-LC retention time: 674 s

O=C(C1CCCN(c2cnc3nccnc3c2)C1)N1CCN(c2ccccc2F)CC1 (centres undefined)
RP-LC retention time: 778 s

Cc1cc(C(=O)N2c3ccccc3CC2c2nc(C3CC3)no2)nn1C (centres undefined)
RP-LC retention time: 929 s

Cc1nc(-c2csc(S(=O)(=O)NCc3ccc(F)cc3Cl)c2)sc1C
RP-LC retention time: 1070 s

O=C(CCn1nnc2cc(-c3noc(-c4ccc(Cl)cc4)n3)ccc21)N1CCOCC1
RP-LC retention time: 936 s

CN1CCCc2cc(C(CNC(=O)C(=O)Nc3ccc4c(c3)OCCO4)N3CCCCC3)ccc21 (centres undefined)
RP-LC retention time: 742 s

Cc1oc(C(C)C)nc1C(=O)NCc1ccccc1C(F)(F)F
RP-LC retention time: 1050 s

CC(C)c1csc(-c2csc(S(=O)(=O)NCc3ccc4c(c3)OCO4)c2)n1
RP-LC retention time: 1050 s

CCCn1cc(CCNC(=O)c2cc(F)ccc2Cl)c2cccnc21
RP-LC retention time: 795 s

CC(C)OCCCNC(=O)c1c2c(cn(-c3ccccc3)c1=O)C(=O)CC(C)(C)C2
RP-LC retention time: 878 s

CCCn1ccc2sc(C)c(C(=O)NC3CCN(Cc4ccccc4)CC3)c2c1=O
RP-LC retention time: 625 s

Cc1cc(S(=O)(=O)N2CCc3nn(C)c(=O)n3CC2)ccc1Cl
RP-LC retention time: 744 s

Cc1ccc(C(=O)NCCc2cn3ccsc3n2)cc1[N+](=O)[O-]
RP-LC retention time: 559 s

COCc1noc(C2CN(CCc3ccccc3)CC23CCCC3)n1 (centres undefined)
RP-LC retention time: 670 s

COc1ccc(-c2nc(Cc3noc(Cc4cccc(F)c4)n3)c(C)o2)cc1
RP-LC retention time: 1000 s

Cc1noc(-c2nc(-c3ccc(OC(C)C)cc3)no2)n1
RP-LC retention time: 1120 s

Cc1cccc(S(=O)(=O)N2CC3CN(C(=O)C4CCCO4)CC(C2)O3)c1 (centres undefined)
RP-LC retention time: 688 s

CCn1cc(S(=O)(=O)N2CCCn3nc(-c4cccs4)cc3C2)cn1
RP-LC retention time: 816 s

C=CCNC(=O)N1CCCN(C2=NS(=O)(=O)C(c3ccc(C)cc3)=C2C)CC1
RP-LC retention time: 732 s

COCCN(Cc1ccc(C(C)C)cc1)Cc1cc(=O)n2cc(C)ccc2n1
RP-LC retention time: 719 s

O=S(=O)(NC1CCCCC1)c1ccccc1-c1nc(-c2ccccc2)no1
RP-LC retention time: 1280 s

O=C(Cn1ccc2sccc2c1=O)Nc1ccc(F)cc1
RP-LC retention time: 728 s

Cc1cc(NC(=O)Cn2c(=O)n(C(C)C)c3ccc(-c4noc(C)n4)cc32)no1
RP-LC retention time: 755 s

CCCCc1ccc(N2C(=O)C3N=NN(Cc4nc(-c5ccc(Cl)cc5)no4)C3C2=O)cc1 (centres undefined)
RP-LC retention time: 1280 s

Cn1cnc2cc(CNC(=O)c3ccc(C#N)cc3)ccc21
RP-LC retention time: 578 s

O=C(CC1CCCCN1S(=O)(=O)c1ccc(Cl)cc1)NCc1cccnc1 (centres undefined)
RP-LC retention time: 568 s

COCCN1CCC(N2CCN(S(=O)(=O)c3ccc(C(F)(F)F)cc3)CC2)C1=O (centres undefined)
RP-LC retention time: 625 s

Cc1cc(C)c(C(=O)N2CCC(CC(=O)NCc3ccc4c(c3)OCO4)CC2)[nH]1
RP-LC retention time: 724 s

Cc1c(-c2cccc(NC(=O)c3cccc(Br)c3)c2)nc2ncccn12
RP-LC retention time: 696 s

CCc1ccc(C2=C(C)C(N3CCC(C(=O)NC)CC3)=NS2(=O)=O)cc1
RP-LC retention time: 738 s

CCN(CCCNC(=O)c1nnc(-c2ccc(S(=O)(=O)N3CCCC3)cc2)o1)Cc1ccccc1
RP-LC retention time: 661 s

Cc1ccc(Cn2nc3ccc(S(=O)(=O)N4CCCC4)cn3c2=O)cc1
RP-LC retention time: 895 s

CCCCNC(=O)c1ccc(-c2ccc3c(c2)CCN3C(C)=O)cc1
RP-LC retention time: 832 s

COc1ccc(-c2nnc(Cc3nc(-c4cccc(C)c4)no3)o2)cc1OC
RP-LC retention time: 983 s

O=C(Cn1cc(-c2ccccc2)c2ncn(C3CC3)c(=O)c21)Nc1ccc2c(c1)OCO2
RP-LC retention time: 826 s

Cc1ccc(NC(=O)c2ncn3c2C(=O)N(C2CC2)C(C)(C(=O)NC2CCCC2)C3)c(Cl)c1 (centres undefined)
RP-LC retention time: 864 s

COC(=O)c1sccc1NC(=O)N1CCCn2nc(-c3cccs3)cc2C1
RP-LC retention time: 984 s

CCc1ccc(Nc2nc(C(=O)NCCOC)nc3ccccc23)cc1
RP-LC retention time: 748 s

O=C(NCC1(c2ccccc2)CCOCC1)c1c(F)cccc1Cl
RP-LC retention time: 769 s
